According to PubChem BioAssay AID1963848 (Molecular Pharmacology Branch, DTP, NCI, 2024):

Tested on: 379773-124-R-J2-PDC spheroid viability
Test: Anticancer human tumor 379773-124-R-J2-PDC patient-derived endometrial carcinoma cell line growth inhibition [POLQ]
Conditions: spheroids with HUVEC and MSC; for IC50: curve of first compound; for viability, T/C: stronger effect = lower value
Method in brief: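 Growth inhibition in 3D: complex spheroids (tumor PDC, HUVEC, MSC) treated with POLQ inhibitor combinations; where Cmax unknown, highest tested concentration 10 microM, except SN-38 at 1 microM.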

[1] = second compound 0.0316 µM, first compound 0.0316 µM
[2] = second compound 0.0316 µM, first compound 0.1 µM
[3] = second compound 0.0316 µM, first compound 0.316 µM
[4] = second compound 0.0316 µM, first compound 1 µM
[5] = second compound 0.0316 µM, first compound 3.16 µM
[6] = second compound 0.0316 µM, first compound 10 µM
[7] = second compound 0.1 µM, first compound 0.0316 µM
[8] = second compound 0.1 µM, first compound 0.1 µM
[9] = second compound 0.1 µM, first compound 0.316 µM
[10] = second compound 0.1 µM, first compound 1 µM
[11] = second compound 0.1 µM, first compound 3.16 µM
[12] = second compound 0.1 µM, first compound 10 µM
[13] = second compound 0.316 µM, first compound 0.0316 µM
[14] = second compound 0.316 µM, first compound 0.1 µM
[15] = second compound 0.316 µM, first compound 0.316 µM
[16] = second compound 0.316 µM, first compound 1 µM
[17] = second compound 0.316 µM, first compound 3.16 µM
[18] = second compound 0.316 µM, first compound 10 µM
[19] = second compound 1 µM, first compound 0.0316 µM
[20] = second compound 1 µM, first compound 0.1 µM
[21] = second compound 1 µM, first compound 0.316 µM
[22] = second compound 1 µM, first compound 1 µM
[23] = second compound 1 µM, first compound 3.16 µM
[24] = second compound 1 µM, first compound 10 µM
[25] = second compound 3.16 µM, first compound 0.0316 µM
[26] = second compound 3.16 µM, first compound 0.1 µM
[27] = second compound 3.16 µM, first compound 0.316 µM
[28] = second compound 3.16 µM, first compound 1 µM
[29] = second compound 3.16 µM, first compound 3.16 µM
[30] = second compound 3.16 µM, first compound 10 µM
[31] = second compound 10 µM, first compound 0.0316 µM
[32] = second compound 10 µM, first compound 0.1 µM
[33] = second compound 10 µM, first compound 0.316 µM
[34] = second compound 10 µM, first compound 1 µM
[35] = second compound 10 µM, first compound 3.16 µM
[36] = second compound 10 µM, first compound 10 µM
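Also: spheroids exposed to drugs for seven days before readout.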
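For viability, T/C in this document: percent viability relative to DMSO vehicle control taken as 100%.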

SMILES: CNCc1ccc(-c2[nH]c3cc(F)cc4c3c2CCNC4=O)cc1 + COC1C(OC(N)=O)C(O)C(Oc2ccc3c(O)c(NC(=O)c4ccc(O)c(CC=C(C)C)c4)c(=O)oc3c2C)OC1(C)C
- IC50 (second compound 0.0316 µM): > 10 µM
- IC50 (second compound 0.1 µM): > 10 µM
- IC50 (second compound 0.316 µM): > 10 µM
- IC50 (second compound 1 µM): > 10 µM
- IC50 (second compound 3.16 µM): > 10 µM
- IC50 (second compound 10 µM): > 10 µM
- viability, T/C [1]: 104%
- viability, T/C [2]: 86.1%
- viability, T/C [3]: 84.5%
- viability, T/C [4]: 74.5%
- viability, T/C [5]: 82.5%
- viability, T/C [6]: 78.1%
- viability, T/C [7]: 102%
- viability, T/C [8]: 86.7%
- viability, T/C [9]: 90.5%
- viability, T/C [10]: 88.2%
- viability, T/C [11]: 87.8%
- viability, T/C [12]: 82.9%
- viability, T/C [13]: 95.5%
- viability, T/C [14]: 96.8%
- viability, T/C [15]: 87.8%
- viability, T/C [16]: 93.2%
- viability, T/C [17]: 77.2%
- viability, T/C [18]: 78.4%
- viability, T/C [19]: 91.8%
- viability, T/C [20]: 98.2%
- viability, T/C [21]: 78.1%
- viability, T/C [22]: 86.1%
- viability, T/C [23]: 82.6%
- viability, T/C [24]: 67.3%
- viability, T/C [25]: 79.8%
- viability, T/C [26]: 79.9%
- viability, T/C [27]: 76.2%
- viability, T/C [28]: 85.1%
- viability, T/C [29]: 80.1%
- viability, T/C [30]: 78.3%
- viability, T/C [31]: 80.3%
- viability, T/C [32]: 81.7%
- viability, T/C [33]: 96.5%
- viability, T/C [34]: 75.5%
- viability, T/C [35]: 76.7%
- viability, T/C [36]: 65.7%

SMILES: Nc1ccn(C2OC(CO)C(O)C2(F)F)c(=O)n1 (stereo unspecified) + COC1C(OC(N)=O)C(O)C(Oc2ccc3c(O)c(NC(=O)c4ccc(O)c(CC=C(C)C)c4)c(=O)oc3c2C)OC1(C)C
- IC50 (second compound 0.0316 µM): < 0.0316 µM
- IC50 (second compound 0.1 µM): < 0.0316 µM
- IC50 (second compound 0.316 µM): < 0.0316 µM
- IC50 (second compound 1 µM): < 0.0316 µM
- IC50 (second compound 3.16 µM): < 0.0316 µM
- IC50 (second compound 10 µM): < 0.0316 µM
- viability, T/C [1]: 14.1%
- viability, T/C [2]: 7.21%
- viability, T/C [3]: 8.07%
- viability, T/C [4]: 10.4%
- viability, T/C [5]: 7.9%
- viability, T/C [6]: 5.28%
- viability, T/C [7]: 13.9%
- viability, T/C [8]: 7.13%
- viability, T/C [9]: 9.39%
- viability, T/C [10]: 8.07%
- viability, T/C [11]: 8.46%
- viability, T/C [12]: 7.04%
- viability, T/C [13]: 14.2%
- viability, T/C [14]: 9.44%
- viability, T/C [15]: 8.7%
- viability, T/C [16]: 9.16%
- viability, T/C [17]: 11.3%
- viability, T/C [18]: 9.38%
- viability, T/C [19]: 19.4%
- viability, T/C [20]: 7.26%
- viability, T/C [21]: 9.54%
- viability, T/C [22]: 8.14%
- viability, T/C [23]: 9.07%
- viability, T/C [24]: 7.06%
- viability, T/C [25]: 16.1%
- viability, T/C [26]: 7.44%
- viability, T/C [27]: 8.41%
- viability, T/C [28]: 9.67%
- viability, T/C [29]: 7.02%
- viability, T/C [30]: 6.42%
- viability, T/C [31]: 17.5%
- viability, T/C [32]: 5.7%
- viability, T/C [33]: 9.27%
- viability, T/C [34]: 8.67%
- viability, T/C [35]: 8.15%
- viability, T/C [36]: 8.46%

SMILES: O=C(c1cc(Cc2n[nH]c(=O)c3ccccc23)ccc1F)N1CCN(C(=O)C2CC2)CC1 + COC1C(OC(N)=O)C(O)C(Oc2ccc3c(O)c(NC(=O)c4ccc(O)c(CC=C(C)C)c4)c(=O)oc3c2C)OC1(C)C
- IC50 (second compound 0.0316 µM): 6.65 µM
- IC50 (second compound 0.1 µM): 9.68 µM
- IC50 (second compound 0.316 µM): 8.28 µM
- IC50 (second compound 1 µM): 7.63 µM
- IC50 (second compound 3.16 µM): 9.21 µM
- IC50 (second compound 10 µM): 9.44 µM
- viability, T/C [1]: 87.3%
- viability, T/C [2]: 80.7%
- viability, T/C [3]: 88.5%
- viability, T/C [4]: 82.4%
- viability, T/C [5]: 71.2%
- viability, T/C [6]: 38.2%
- viability, T/C [7]: 92.5%
- viability, T/C [8]: 76.6%
- viability, T/C [9]: 86.9%
- viability, T/C [10]: 81.4%
- viability, T/C [11]: 88.1%
- viability, T/C [12]: 48.9%
- viability, T/C [13]: 82.4%
- viability, T/C [14]: 91.8%
- viability, T/C [15]: 88.1%
- viability, T/C [16]: 85.8%
- viability, T/C [17]: 74.8%
- viability, T/C [18]: 44.7%
- viability, T/C [19]: 85.1%
- viability, T/C [20]: 80%
- viability, T/C [21]: 78.3%
- viability, T/C [22]: 84.4%
- viability, T/C [23]: 72.2%
- viability, T/C [24]: 42.8%
- viability, T/C [25]: 80.2%
- viability, T/C [26]: 82.8%
- viability, T/C [27]: 76.5%
- viability, T/C [28]: 73.2%
- viability, T/C [29]: 73.3%
- viability, T/C [30]: 48%
- viability, T/C [31]: 70.5%
- viability, T/C [32]: 78.8%
- viability, T/C [33]: 74.1%
- viability, T/C [34]: 72.7%
- viability, T/C [35]: 73.5%
- viability, T/C [36]: 48.8%
